Read-outs that look alike come from different tables or passages of the source.

Results on 1 compound are retold here after publication PMC11640089, “JRM-28, a Novel HDAC2 Inhibitor, Upregulates Plasticity-Associated Proteins in Hippocampal Neurons and Enhances Morphological Plasticity via Activation of CREB: Implications for Alzheimer’s Disease” (Cells, 2024).

One series has as its system SHSY5Y cells. The series is described as follows: TUNEL assay. The series is classed as cell-based, human. To be noted: 24 h, in the presence of DTT. On the procedure: To assess the effect of JRM-28 on apoptosis in SHS5Y cells, a total of 3 × 10^5 cells suspended in […] of complete neurobasal medium was distributed in each well of a poly-D-lysine-coated eight-well Chamber Slide. After 48 h, cells were treated with 2, 5, 10, 20, 30, and 50 μM of JRM-28 under serum-free conditions and then incubated for an additional 24 h. The TUNEL activity was measured by colorimetric microscopy as directed in the protocol described in DeadEnd™ Colorimetric TUNEL System (Promega, Madison, WI, USA). Hematoxylin staining was adopted to counterstain the slide.

A further series deals with NR2A and GluR1. The series is described as follows: NR2A and GluR1 immunofluorescence in E18 mouse hippocampal neurons. The format is cell-based. The note with it: 5 µM. As to the method:
Immunofluorescence analysis was performed as described earlier. Briefly, cells cultured on coverslip contained in six-well plates (Lab-Tek II) were fixed with 4% paraformaldehyde for 20 min followed by two rinses in TBST. Samples were incubated in a 1:1 solution of TBST and blocking buffer containing rabbit anti-NR2A (1:250), anti-GluR1 (1:250), ant-HDAC2 (1:250), anti-CREB (1:250), and anti-MAP2 (1:250) for 2 h at 37 °C. After three washes in PBST (15 min each), slides were further incubated with FIT-C and TRIT-C-conjugated secondary antibodies. For negative controls, a set of culture slides was incubated under similar conditions with secondary antibodies and without the primary antibodies (Table 3). The samples were mounted and observed under an Accuscope fluorescent microscope. The images were captured and merged in CaptaVision^TM imaging software.

In a further series the target is HDAC2 (Homo sapiens, UniProt Q92769). Description: HDAC2 inhibition assay, luminometric method (HDAC-Glo I/II). The format is biochemical. The arrangement: purchased BPS Bioscience 50002. To be noted: for IC50: HDAC2 0.5 nM, read-out: IC50 HDAC2 inhibition (luminescence). As to the method: HDAC2 inhibition assay was performed by either the luminometric or fluorimetric method applying the following procedures. The table (Table 1) represents the details of different HDAC proteins and antibodies used in all biochemical assays.
HDAC2 inhibition assay was performed by HDAC-Glo™ I/II Assays and Screening System (Catalog# G6420, Promega Corporation, Madison, WI, USA) by the luminometric method according to the manufacturer’s protocol. […] The HDAC-2 inhibition assay was performed as previously described to determine IC values. In brief, the purified HDAC2 was diluted in HDAC assay buffer (provided with the HDAC-Glo™ I/II Assays and Screening System) to the same concentration based on their calculated molar mass. […] Next, 10 µL of JRM-28 after serial dilution was added to 10 µL of diluted HDAC2 in such a way that the final HDAC2 concentration was 0.5 nM in each well of a 384-well microplate (Greiner, Kremsmünster, Austria). After 30 min of incubation, 20 µL of the HDAC-Glo substrate/developing reagent was added to each well according to the manufacturer’s instructions. The 384-well plate was then agitated on an orbital shaker for the mixing of components in each well for another 30 min at room temperature. Finally, luminescence was measured using a POLARstar Omega plate reader (BMG Labtech, Ortenberg, Germany).

The test system of series [1] is mouse primary hippocampal neurons. Description: Dendrite and spine analysis in E18 mouse primary hippocampal neurons. The note with it: 5 µM, 48 h. The format is cell-based. As to the method:
Primary neuronal cell culture was performed based on a protocol approved by the Institutional Animal Care and Use Committee (IACUC) of the University of Wisconsin-Milwaukee, Milwaukee, WI-53211, and by the guidelines set by the National Institute of Health. Embryonic day 18 (E18) fetuses were harvested, and hippocampal tissue was dissected from brains and then processed for single cell culture in poly-D-lysine-coated plates, as discussed elsewhere. Neuronal cells were maintained with B-27^TM-plus-supplemented complete neurobasal media for 7–10 days until fully differentiated. After that, the treatment with JRM-28 was performed. […]
For counting spine density, dissociated E18 hippocampal neurons maintained 18 days in vitro were stained with Alexa-647 conjugated phalloidin (Cat #A22287) together with MAP2. Only densely stained neurons (>20 spines every 10 µm dendrite) were counted. The total length of each dendrite was measured at 400× magnification using an Accu-Scope EXC-500 microscope (NY, USA). The number of spines on the dendrites was counted under oil immersion. As some of the spines were hidden under the dendrite, only spines that protruded laterally from the shafts of the dendrites into the surrounding area of clear neuropil were counted. […]

The next series relates to iPSC-derived AD neurons. Description: NMDA/AMPA-driven calcium entry assay in iPSC-derived AD neurons. The format is cell-based, human. As to the method:
Mouse primary hippocampal neurons and AD neurons were loaded with Fluo4-fluorescence conjugated calcium dye (Invitrogen Molecular Probes, Cat #F10471) and incubated at 37 °C for 60 min, as described before. Briefly, fluorescence excitation and emission spectra were recorded in a Perkin–Elmer Victor X2 Fluorimetric Spectrometer (Versiti Blood Center, Wauwatosa, WI, USA) in the presence of 50 μM NMDA and AMPA solutions. The recording was performed with 100 repeats at 0.1 ms intervals. The oscillogram was generated with the help of Parkin Elmer 2030 software that was connected to the Victor X2 calcium recorder unit. The real-time calcium noise graph was generated as a kinetic chart plotted on a linear scale.

HDAC2, sequence (Q92769 whole entry): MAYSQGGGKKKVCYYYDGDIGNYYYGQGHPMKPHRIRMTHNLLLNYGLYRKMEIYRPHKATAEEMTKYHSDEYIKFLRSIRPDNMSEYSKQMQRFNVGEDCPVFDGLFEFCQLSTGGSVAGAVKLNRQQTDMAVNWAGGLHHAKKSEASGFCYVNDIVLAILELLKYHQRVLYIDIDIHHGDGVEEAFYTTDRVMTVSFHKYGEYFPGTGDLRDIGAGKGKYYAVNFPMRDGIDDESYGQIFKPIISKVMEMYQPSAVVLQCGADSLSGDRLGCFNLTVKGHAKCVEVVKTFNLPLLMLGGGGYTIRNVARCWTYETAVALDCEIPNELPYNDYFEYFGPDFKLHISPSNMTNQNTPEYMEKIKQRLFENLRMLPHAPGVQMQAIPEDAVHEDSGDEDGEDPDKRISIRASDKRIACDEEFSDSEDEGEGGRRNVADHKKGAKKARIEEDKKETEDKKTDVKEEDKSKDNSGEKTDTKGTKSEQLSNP

Turning to `CN(C(=O)CC(O)/C=C/CCSS(=O)(=O)CC/C=C/C(O)CC(=O)N(C)c1ccccc1)c1ccccc1` (stereo not drawn) [JRM-28, S-((E)-5-hydroxy-7-(methyl(phenyl)amino)-7-oxohept-3-en-1-yl) (E)-5-hydroxy-7-(methyl(phenyl)amino)-7-oxohept-3-ene-1-sulfonothioate], the TUNEL cytotoxicity result with SHSY5Y cells (20 µM) is recorded as “caused nuclear condensation”; in the series with SHSY5Y cells (30 µM), “induced significant cell death”; with SHSY5Y cells (50 µM), “induced significant cell death”; with SHSY5Y cells (lower doses up to 10 µM), “did not induce any cell death”. For the same compound, the “expressions of NR2A and GluR1 (IF, MFI)” value in the series on NR2A and GluR1 is listed as “upregulated”. Besides, the IC50 on HDAC2 (in the presence of DTT (reduced)) amounted to 280 nM; on HDAC2 (without DTT (non-reduced dimer)), 54900 nM. Moreover, the “increase of HDAC2 inhibitory effect by addition of DTT” value at HDAC2 (with DTT versus without DTT) is reported as roughly 200 fold. In series [1] (18 DIV), the “spine maturation (head-to-shaft ratio >0.6)” value is “significantly induced the maturation of spines”. For the same compound, in series [1] (8 days in vitro), the MAP2-ir basal dendrites entry is given as “significantly upregulated the synthesis of MAP2-ir basal dendrites”. Moreover, the AMPA-driven calcium influx entry in the series with iPSC-derived AD neurons (5 µM) is recorded as “strong AMPA-driven calcium influx”. In addition, the NMDA-driven calcium entry entry in the series on iPSC-derived AD neurons (5 µM) was “significantly high”. Also, in the series with iPSC-derived AD neurons (2, 5, and 10 µM tested), the “concentration of maximum NMDA-driven calcium entry” value came out at 10 µM. Further, in the series on iPSC-derived AD neurons (creb siRNA-transfected AD neurons), the “NMDA- and AMPA-induced calcium entry after creb siRNA” value is on record as “strongly attenuated”.

In general, IC50 refers to the midpoint of a concentration-inhibition curve.
